In BindingDB's records for doi:10.1021/cb600303y (Rutgers University, 2006):

How the values were obtained:
[1] = target: T1, Gag-Pol polyprotein [600-1028,C879S]/[600-1151,C879S] (Human immunodeficiency virus 1, UniProt P03366, C879S); assay: Assay of RT RNH Activity; details: pH 8; 37 °C
T1 construct: 600-1028; 600-1151
Protocol: (§1) To assess the effect of inhibitors, RT RNH activity was measured using a FRET-based microplate fluorescence assay. Briefly, the RNA-DNA hybrid duplex was added to individual wells of a 96-well microplate containing test compound. Reactions were initiated by the addition of HIV-1 RT and allowed to proceed at 37 deg C for 30 min. Reactions were quenched by the addition of EDTA (0.5 M).

[2] = target: T1, Gag-Pol polyprotein [600-1028,C879S]/[600-1151,C879S]; assay: Assay of RT RNA-Dependent DNA Polymerase (RDDP) Activity; details: pH 7.8; 37 °C
Protocol: HIV-1 RT RDDP activity was generally determined by a fixed time assay. Briefly, reaction mixtures contained p51/p66 RT, template-primer, and [3H]-TTP substrate. Aliquots of DMSO solutions containing the inhibitor were added such that the final DMSO concentration was < 2%. Reaction assays were incubated at 37 deg C for 10-20 min and then quenched with sodium pyrophosphate in 10% trichloroacetic acid (TCA). The samples were then filtered on Whatman 934-AH glass fiber filters and washed with 10% TCA and ethanol, and the radioactivity determined by liquid scintillation spectrometry.

[3] = target: T2, Gag-Pol polyprotein [600-1028,D666N,K669R,T814F,K818Q,C879S]/[600-1151,D666N,K669R,T814F,K818Q,C879S] (Human immunodeficiency virus 1, UniProt P03366, C879S/D666N/K669R/K818Q/T814F); assay: Assay of RT RNH Activity
T2 construct: 600-1028; 600-1151
Protocol: as §1

[4] = target: T3, Gag-Pol polyprotein [600-1028,L699I,K702N,C879S]/[600-1151,L699I,K702N,C879S] (Human immunodeficiency virus 1, UniProt P03366, C879S/K702N/L699I); assay: Assay of RT RNH Activity
T3 construct: 600-1028; 600-1151
Protocol: as §1

[5] = target: T4, Gag-Pol polyprotein [600-1028,V705A,Y780C,C879S]/[600-1151,V705A,Y780C,C879S] (Human immunodeficiency virus 1, UniProt P03366, C879S/V705A/Y780C); assay: Assay of RT RNH Activity
T4 construct: 600-1028; 600-1151
Protocol: as §1

[6] = target: T5, Gag-Pol polyprotein [600-1028,Y780C]/[600-1151,Y780C] (Human immunodeficiency virus 1, UniProt P03366, Y780C); assay: Assay of RT RNH Activity
T5 construct: 600-1028; 600-1151
Protocol: as §1

[7] = target: T6, Gag-Pol polyprotein [600-1028,Y787L]/[600-1151,Y787L] (Human immunodeficiency virus 1, UniProt P03366, Y787L); assay: Assay of RT RNH Activity
T6 construct: 600-1028; 600-1151
Protocol: as §1

Compound	IC50 [1] [µM]	IC50 [2] [µM]	IC50 [3] [µM]	IC50 [4] [µM]	IC50 [5] [µM]	IC50 [6] [µM]	IC50 [7] [µM]
COc1ccc2ccccc2c1/C=N/NC(=O)C1CCC(c2ccc(Cl)cc2)CC1 (stereo not drawn) [dihydroxy benzoyl naphthyl hydrazone (DHBNH) analogue, 8]	7.5	1					
COc1ccc2ccccc2c1/C=N/NC(=O)c1ccc(N(C)C)cc1 [dihydroxy benzoyl naphthyl hydrazone (DHBNH) analogue, 4]	2	> 50					
COc1ccc(C(=O)N/N=C/c2c(OC)ccc3ccccc23)cc1 [dihydroxy benzoyl naphthyl hydrazone (DHBNH) analogue, 3]	12	> 50					
COc1ccc2ccccc2c1/C=N/NC(=O)c1ccc(C)cc1 [dihydroxy benzoyl naphthyl hydrazone (DHBNH) analogue, 2]	15	> 50					
COc1ccc2ccccc2c1/C=N/NC(=O)c1ccc(Oc2ccccc2)cc1 [dihydroxy benzoyl naphthyl hydrazone (DHBNH) analogue, 7]	7	0.4					
COc1ccc2ccccc2c1/C=N/NC(=O)c1ccc(O)c(O)c1 [dihydroxy benzoyl naphthyl hydrazone (DHBNH)]	0.5	> 25	0.5	0.7	0.85	0.65	1.2
COc1ccc2ccccc2c1/C=N/NC(=O)c1ccc(C(C)(C)C)cc1 [dihydroxy benzoyl naphthyl hydrazone (DHBNH) analogue, 5]	3	2					
COc1ccc2ccccc2c1/C=N/NC(=O)c1ccccc1 [dihydroxy benzoyl naphthyl hydrazone (DHBNH) analogue, 1]	15	> 50					
COc1ccc2ccccc2c1/C=N/NC(=O)c1ccc(-c2ccccc2)cc1 [dihydroxy benzoyl naphthyl hydrazone (DHBNH) analogue, 6]	5	0.5					
